Source: ChEMBL document CHEMBL1275577, “Study of the in vitro activities of rifaximin and comparator agents against 536 anaerobic intestinal bacteria from the perspective of potential utility in pathology involving bowel flora” (Antimicrob Agents Chemother, 2009)

How the values were obtained:
Assay type in all cases: functional
Clostridium nexile = assay: Antimicrobial activity against Clostridium nexile by Wadsworth agar dilution method; conditions: Faecalimonas nexilis
[1] = test system: Porphyromonas asaccharolytica; assay: Antimicrobial activity against Porphyromonas asaccharolyticus by Wadsworth agar dilution method
Prevotella intermedia = assay: Antimicrobial activity against Prevotella intermedia by Wadsworth agar dilution method
[2] = test system: Propionibacterium propionicum; assay: Antimicrobial activity against Propionibacterium propionicum by Wadsworth agar dilution method; conditions: Arachnia propionica
Clostridium bolteae = assay: Antimicrobial activity against Clostridium bolteae by Wadsworth agar dilution method; conditions: Enterocloster bolteae
Eubacterium callanderi = assay: Antimicrobial activity against Eubacterium callanderi by Wadsworth agar dilution method
Clostridium disporicum = assay: Antimicrobial activity against Clostridium disporicum by Wadsworth agar dilution method
[3] = test system: Lactobacillus acidophilus; assay: Antimicrobial activity against Lactobacillus acidophilus by Wadsworth agar dilution method
Eubacterium limosum = assay: Antimicrobial activity against Eubacterium limosum by Wadsworth agar dilution method
Finegoldia magna = assay: Antimicrobial activity against Finegoldia magna by Wadsworth agar dilution method
Clostridium sporogenes = assay: Antimicrobial activity against Clostridium sporogenes by Wadsworth agar dilution method
Blautia producta = assay: Antimicrobial activity against Ruminococcus productus by Wadsworth agar dilution method
Parvimonas micra = assay: Antimicrobial activity against Peptostreptococcus micros by Wadsworth agar dilution method
[4] = test system: Lacticaseibacillus rhamnosus; assay: Antimicrobial activity against Lactobacillus rhamnosus by Wadsworth agar dilution method
[5] = test system: Clostridium paraputrificum; assay: Antimicrobial activity against Clostridium paraputrificum by Wadsworth agar dilution method
Clostridium butyricum = assay: Antimicrobial activity against Clostridium butyricum by Wadsworth agar dilution method
[6] = test system: Lactobacillus catenaformis; assay: Antimicrobial activity against Lactobacillus catenaformis by Wadsworth agar dilution method; conditions: Eggerthia catenaformis
Prevotella corporis = assay: Antimicrobial activity against Prevotella corporis by Wadsworth agar dilution method
[7] = test system: Fusobacterium necrophorum; assay: Antimicrobial activity against Fusobacterium necrophorum by Wadsworth agar dilution method
Clostridium bartlettii = assay: Antimicrobial activity against Clostridium bartlettii by Wadsworth agar dilution method; conditions: Intestinibacter bartlettii
Clostridium glycolicum = assay: Antimicrobial activity against Clostridium glycolicum by Wadsworth agar dilution method; conditions: Terrisporobacter glycolicus
[8] = test system: Parabacteroides goldsteinii; assay: Antimicrobial activity against Parabacteroides goldsteinii by Wadsworth agar dilution method
[9] = test system: Clostridium acetobutylicum; assay: Antimicrobial activity against Clostridium acetobutylicum by Wadsworth agar dilution method
Bacteroides fragilis = assay: Antimicrobial activity against Bacteroides fragilis by Wadsworth agar dilution method
Fusobacterium mortiferum = assay: Antimicrobial activity against Fusobacterium mortiferum by Wadsworth agar dilution method in presence of beta-lactamase inhibitor Sulbactam
Bifidobacterium dentium = assay: Antimicrobial activity against Bifidobacterium dentium by Wadsworth agar dilution method
[10] = test system: Clostridium aminobutyricum; assay: Antimicrobial activity against Clostridium aminobutyricum by Wadsworth agar dilution method
[11] = test system: Clostridium lactatifermentans; assay: Antimicrobial activity against Clostridium lactatifermentans by Wadsworth agar dilution method; conditions: Anaerotignum lactatifermentans
Anaerococcus prevotii = assay: Antimicrobial activity against Anaerococcus prevotii by Wadsworth agar dilution method
Bilophila wadsworthia = assay: Antimicrobial activity against Bilophila wadsworthia by Wadsworth agar dilution method in presence of 1% pyruvic acid
Collinsella aerofaciens = assay: Antimicrobial activity against Colinsella aerofaciens by Wadsworth agar dilution method
Desulfovibrio sp. = assay: Antimicrobial activity against Desulfovibrio sp. by Wadsworth agar dilution method
Desulfovibrio piger = assay: Antimicrobial activity against Desulfovibrio piger by Wadsworth agar dilution method
Prevotella disiens = assay: Antimicrobial activity against Prevotella disiens by Wadsworth agar dilution method
Schaalia odontolytica = assay: Antimicrobial activity against Actinomyces odontolyticus by Wadsworth agar dilution method
[12] = test system: Limosilactobacillus reuteri; assay: Antimicrobial activity against Lactobacillus reuteri by Wadsworth agar dilution method
Clostridium scindens = assay: Antimicrobial activity against Clostridium scindens by Wadsworth agar dilution method
[13] = test system: Peptoniphilus asaccharolyticus; assay: Antimicrobial activity against Peptoniphilus asaccharolyticus by Wadsworth agar dilution method
Clostridium subterminale = assay: Antimicrobial activity against Clostridium subterminale by Wadsworth agar dilution method
Schaalia meyeri = assay: Antimicrobial activity against Actinomyces meyeri by Wadsworth agar dilution method
Bacteroides uniformis = assay: Antimicrobial activity against Bacteroides uniformis by Wadsworth agar dilution method
Fusobacterium sp. = assay: Antimicrobial activity against Fusobacterium sp. by Wadsworth agar dilution method
Porphyromonas = assay: Antimicrobial activity against Porphyromonas sp. by Wadsworth agar dilution method
Lactobacillus sp. = assay: Antimicrobial activity against Lactobacillus sp. by Wadsworth agar dilution method
Fusobacterium varium = assay: Antimicrobial activity against Fusobacterium varium by Wadsworth agar dilution method
[Clostridium] innocuum = Antimicrobial activity against Clostridium innocuum by Wadsworth agar dilution method
Clostridioides difficile = assay: Antimicrobial activity against Clostridium difficile by Wadsworth agar dilution method

CN[C@H](CC(C)C)C(=O)N[C@H]1C(=O)N[C@@H](CC(N)=O)C(=O)N[C@H]2C(=O)N[C@H]3C(=O)N[C@H](C(=O)N[C@H](C(=O)O)c4cc(O)cc(O)c4-c4cc3ccc4O)[C@H](O)c3ccc(c(Cl)c3)Oc3cc2cc(c3O[C@@H]2O[C@H](CO)[C@@H](O)[C@H](O)[C@H]2O[C@H]2C[C@](C)(N)[C@H](O)[C@H](C)O2)Oc2ccc(cc2Cl)[C@H]1O [VANCOMYCIN]
256 µg/mL: MIC90 (Prevotella intermedia) | MIC90 (Prevotella corporis) | MIC50 [7] | MIC50 (Fusobacterium mortiferum) | MIC90 (Prevotella disiens) | MIC50 (Fusobacterium sp.) | MIC50 (Fusobacterium varium) | MIC90 ([Clostridium] innocuum)
0.5 µg/mL: MIC50 (Finegoldia magna) | MIC50 (Blautia producta) | MIC50 (Parvimonas micra) | MIC50 (Anaerococcus prevotii) | MIC50 [13]
64 µg/mL: MIC90 [2] | MIC90 (Eubacterium callanderi) | MIC90 [3] | MIC90 (Eubacterium limosum) | MIC90 [4] | MIC90 [6] | MIC50 (Bacteroides fragilis) | MIC90 (Bifidobacterium dentium) | MIC (Bilophila wadsworthia) | MIC50 (Bilophila wadsworthia) | MIC90 (Collinsella aerofaciens) | MIC90 (Schaalia odontolytica) | MIC90 [12] | MIC90 (Schaalia meyeri) | MIC (Bacteroides uniformis) | MIC50 (Bacteroides uniformis) | MIC90 (Lactobacillus sp.)
128 µg/mL: MIC50 (Prevotella intermedia) | MIC50 (Prevotella corporis) | MIC50 [8] | MIC90 [8] | MIC90 (Bacteroides fragilis) | MIC90 (Bilophila wadsworthia) | MIC50 (Prevotella disiens) | MIC90 (Bacteroides uniformis)
2 µg/mL: MIC90 (Clostridioides difficile)
> 1020 µg/mL: MIC90 [7] | MIC90 (Fusobacterium mortiferum) | MIC50 (Desulfovibrio sp.) | MIC90 (Desulfovibrio sp.) | MIC50 (Desulfovibrio piger) | MIC90 (Desulfovibrio piger) | MIC90 (Fusobacterium sp.) | MIC90 (Fusobacterium varium)
4 µg/mL: MIC90 (Clostridium nexile) | MIC50 [1] | MIC90 (Clostridium bolteae) | MIC90 (Clostridium disporicum) | MIC90 (Clostridium sporogenes) | MIC90 [5] | MIC90 (Clostridium butyricum) | MIC90 (Clostridium bartlettii) | MIC90 (Clostridium glycolicum) | MIC90 [9] | MIC90 [10] | MIC90 [11] | MIC90 (Clostridium scindens) | MIC90 (Clostridium subterminale) | MIC50 (Porphyromonas)
8 µg/mL: MIC90 [1] | MIC90 (Porphyromonas)
16 µg/mL: MIC ([Clostridium] innocuum) | MIC50 ([Clostridium] innocuum)
1 µg/mL: MIC50 (Clostridium nexile) | MIC50 [2] | MIC50 (Clostridium bolteae) | MIC50 (Eubacterium callanderi) | MIC50 (Clostridium disporicum) | MIC50 [3] | MIC50 (Eubacterium limosum) | MIC90 (Finegoldia magna) | MIC50 (Clostridium sporogenes) | MIC90 (Blautia producta) | MIC90 (Parvimonas micra) | MIC50 [4] | MIC50 [5] | MIC50 (Clostridium butyricum) | MIC50 [6] | MIC50 (Clostridium bartlettii) | MIC50 (Clostridium glycolicum) | MIC50 [9] | MIC50 (Bifidobacterium dentium) | MIC50 [10] | MIC50 [11] | MIC90 (Anaerococcus prevotii) | MIC50 (Collinsella aerofaciens) | MIC50 (Schaalia odontolytica) | MIC50 [12] | MIC50 (Clostridium scindens) | MIC90 [13] | MIC50 (Clostridium subterminale) | MIC50 (Schaalia meyeri) | MIC50 (Lactobacillus sp.) | MIC (Clostridioides difficile) | MIC50 (Clostridioides difficile)

CC(=O)Oc1ccccc1C(=O)Nc1ncc([N+](=O)[O-])s1 [NITAZOXANIDE]
0.5 µg/mL: MIC50 (Clostridium nexile) | MIC50 [1] | MIC50 (Clostridium bolteae) | MIC50 (Clostridium disporicum) | MIC50 (Finegoldia magna) | MIC50 (Clostridium sporogenes) | MIC50 (Blautia producta) | MIC50 (Parvimonas micra) | MIC50 [5] | MIC50 (Clostridium butyricum) | MIC50 (Clostridium bartlettii) | MIC50 (Clostridium glycolicum) | MIC50 [9] | MIC50 [10] | MIC50 [11] | MIC50 (Anaerococcus prevotii) | MIC50 (Clostridium scindens) | MIC50 [13] | MIC50 (Clostridium subterminale) | MIC50 (Porphyromonas) | MIC90 (Clostridioides difficile)
32 µg/mL: MIC90 [2] | MIC90 (Eubacterium callanderi) | MIC90 [3] | MIC90 (Eubacterium limosum) | MIC90 [4] | MIC90 [6] | MIC90 (Bifidobacterium dentium) | MIC90 (Collinsella aerofaciens) | MIC90 (Schaalia odontolytica) | MIC90 [12] | MIC90 (Schaalia meyeri) | MIC90 (Lactobacillus sp.)
2 µg/mL: MIC50 [2] | MIC50 (Eubacterium callanderi) | MIC50 [3] | MIC50 (Eubacterium limosum) | MIC50 [4] | MIC50 [6] | MIC50 (Bifidobacterium dentium) | MIC50 (Collinsella aerofaciens) | MIC50 (Schaalia odontolytica) | MIC50 [12] | MIC50 (Schaalia meyeri) | MIC50 (Lactobacillus sp.)
0.25 µg/mL: MIC (Clostridioides difficile) | MIC50 (Clostridioides difficile)
4 µg/mL: MIC90 (Clostridium nexile) | MIC50 (Prevotella intermedia) | MIC90 (Clostridium bolteae) | MIC90 (Clostridium disporicum) | MIC90 (Clostridium sporogenes) | MIC90 [5] | MIC90 (Clostridium butyricum) | MIC50 (Prevotella corporis) | MIC90 (Clostridium bartlettii) | MIC90 (Clostridium glycolicum) | MIC50 [8] | MIC90 [8] | MIC90 [9] | MIC50 (Bacteroides fragilis) | MIC90 (Bacteroides fragilis) | MIC90 [10] | MIC90 [11] | MIC50 (Bilophila wadsworthia) | MIC90 (Bilophila wadsworthia) | MIC90 (Desulfovibrio sp.) | MIC90 (Desulfovibrio piger) | MIC50 (Prevotella disiens) | MIC90 (Clostridium scindens) | MIC90 (Clostridium subterminale) | MIC50 (Bacteroides uniformis) | MIC90 (Bacteroides uniformis) | MIC90 ([Clostridium] innocuum)
1 µg/mL: MIC90 [1] | MIC90 (Finegoldia magna) | MIC90 (Blautia producta) | MIC90 (Parvimonas micra) | MIC50 [7] | MIC50 (Fusobacterium mortiferum) | MIC90 (Anaerococcus prevotii) | MIC50 (Desulfovibrio sp.) | MIC50 (Desulfovibrio piger) | MIC90 [13] | MIC50 (Fusobacterium sp.) | MIC90 (Porphyromonas) | MIC50 (Fusobacterium varium) | MIC50 ([Clostridium] innocuum)
8 µg/mL: MIC90 (Prevotella intermedia) | MIC90 (Prevotella corporis) | MIC90 [7] | MIC90 (Fusobacterium mortiferum) | MIC90 (Prevotella disiens) | MIC90 (Fusobacterium sp.) | MIC90 (Fusobacterium varium)
